# Laboratory results from patent US8785452B2, “Anti-infective compounds” (priority 2008, dated 2014).
# Test system: M. tuberculosis H37Rv-GFP
# Assay: microbe, parasite or virus in culture
# Assay type: cell-based, Mycobacterium tuberculosis
# Settings: Mycobacterium tuberculosis, H37RV, Macrophage, read-out: Primary QIM % Inhibition
row,SMILES,inhibition at 20 µM
1,CC(NC(=O)c1cc([N+](=O)[O-])cc([N+](=O)[O-])c1)c1ccccc1 (stereo not drawn) [IPK 000 046 80],76.9%
2,O=C(Oc1cccc2cccnc12)c1ccccc1 [IPK 000 251 49],27%
3,CC(C)CNC(=O)c1cc([N+](=O)[O-])cc([N+](=O)[O-])c1 [IPK 000 046 78],73.3%
4,CC12CC3CC(C)(C1)CC(NC(=O)c1ccc(N4CCCC4)c([N+](=O)[O-])c1)(C3)C2 [IPK 000 230 02],-7.7%
5,O=[N+]([O-])c1cc(-c2nnc(-c3ccccc3)o2)cc([N+](=O)[O-])c1 [IPK 000 150 85],72.3%
6,CC1=NN(c2ccc([N+](=O)[O-])cc2)C(=O)/C1=N/Nc1c(Cl)cc([N+](=O)[O-])cc1Cl [IPK 000 179 49],65.7%
7,CCCCNC(=O)c1cc([N+](=O)[O-])cc([N+](=O)[O-])c1 [IPK 000 046 87],74.4%
8,O=C(COc1ccc(-c2ccccc2)cc1)Nc1nc2ccccc2s1 [IPK 000 142 17],84.3%

# Same assay, conditions: Mycobacterium tuberculosis, H37RV, Macrophage, read-out: QIM Confirm % Inhibition 20 uM
row,SMILES,inhibition at 20 µM
1,CC(NC(=O)c1cc([N+](=O)[O-])cc([N+](=O)[O-])c1)c1ccccc1 (stereo not drawn) [IPK 000 046 80],64.6%
2,O=C(Oc1cccc2cccnc12)c1ccccc1 [IPK 000 251 49],15%
3,CC(C)CNC(=O)c1cc([N+](=O)[O-])cc([N+](=O)[O-])c1 [IPK 000 046 78],88.9%
4,CC12CC3CC(C)(C1)CC(NC(=O)c1ccc(N4CCCC4)c([N+](=O)[O-])c1)(C3)C2 [IPK 000 230 02],40.5%
5,O=[N+]([O-])c1cc(-c2nnc(-c3ccccc3)o2)cc([N+](=O)[O-])c1 [IPK 000 150 85],72.2%
6,CC1=NN(c2ccc([N+](=O)[O-])cc2)C(=O)/C1=N/Nc1c(Cl)cc([N+](=O)[O-])cc1Cl [IPK 000 179 49],78.5%
7,CCCCNC(=O)c1cc([N+](=O)[O-])cc([N+](=O)[O-])c1 [IPK 000 046 87],56.3%
8,O=C(COc1ccc(-c2ccccc2)cc1)Nc1nc2ccccc2s1 [IPK 000 142 17],82.3%

# Same assay, conditions: Mycobacterium tuberculosis, H37RV, Macrophage; confirmation, 20 uM, intracellular; read-out: QIM Confirm % Inhibition 20 uM
row,SMILES,inhibition at 20 µM
1,CNCCCN1c2ccccc2CCc2ccccc21 [IPK 000 224 59],86.2%
2,CS(=O)(=O)c1nc(-c2ccc(Cl)cc2)n[nH]1 [IPK 000 134 63],12.6%
3,COc1ccc(-c2csc(-c3cccnc3)n2)cc1 [IPK 000 144 22],30%
4,CS(=O)(=O)c1nc(-c2ccc(Br)cc2)n[nH]1 [IPK 000 134 62],25.5%
5,O=C(CSC1=NCCS1)Nc1ccc(Br)cc1F [IPK 000 150 41],83.3%
6,Cc1ccsc1/C=C1/SC(N2CCCCC2)=NC1=O [IPK 000 129 72],75.4%
7,CC(C)(C)c1ccc(-c2nc(Oc3ccc(O)cc3)c3ccccc3n2)cc1 [IPK 000 142 18],79.4%
8,NC(=O)c1ccccc1/N=C/c1ccc([N+](=O)[O-])o1 [IPK 000 175 27],25.8%
9,COc1ccc(/C=N/Nc2nc(-c3ccc(NC(C)=O)cc3)cs2)cc1 [IPK 000 163 52],70.7%
10,Cc1noc(NS(=O)(=O)c2ccc(N)cc2)c1C [IPK 000 254 12],13.2%
11,O=C1OCc2cc(NC(=O)C34CC5CC(CC(C5)C3)C4)ccc21 [IPK 000 249 14],68.6%
12,O=C(Nc1ccc(Cl)c(Cl)c1)c1ccc(Cn2cc(Cl)cn2)cc1 [IPK 000 180 16],69.8%
13,O=C(NCCc1ccccc1)c1ccc([N+](=O)[O-])o1 [IPK 000 235 09],36.4%
14,C/C(=N/NC(=O)c1cc2ccccc2cc1O)c1ccc(O)cc1 [IPK 000 180 11],69.7%
15,COc1ccc(/C=N/Nc2nc(-c3ccccc3)cs2)cc1 [IPK 000 163 62],107%
16,CC(C)CCNC(=O)c1cccc(Cl)c1 [IPK 000 210 79],28.7%
17,CCOc1ccc(C(=O)/C=C/c2ccccc2F)cc1 [IPK 000 172 34],12.5%
18,CCOc1ccc(NCCCCO)cc1 [IPK 000 172 54],40.4%
19,c1cc2c3c(cccc3c1)NC1(CCCCCC1)N2 [IPK 000 141 61],50.8%
20,CCc1cccc(NC(=O)c2cccs2)c1 [IPK 000 257 61],79.9%
21,O=C(Nc1cccc(C(F)(F)F)c1)c1cccs1 [IPK 000 202 08],67.4%
22,CS(=O)(=O)c1nnnn1-c1ccccc1 [IPK 000 244 12],11.8%
23,O=[N+]([O-])c1ccc(Cl)c(/C=N/c2ccccc2O)c1 [IPK 000 169 68],-5.3%
24,Cc1ccc(C(=O)NCCSC2CCCCC2)cc1[N+](=O)[O-] [IPK 000 229 50],83.6%
25,O=c1c(/C=N/Cc2ccco2)c(NCc2ccco2)nc2ccccn12 [IPK 000 130 26],29.9%

row,SMILES,inhibition at 20 µM
1,Cc1ccsc1/C=C/c1ccccc1O [IPK 000 179 05],16.6%
2,CCc1ccc(NC(=O)C23CC4CC(CC(C4)C2)C3)cc1 [IPK 000 228 46],37.8%
3,COc1ccc(/C=C2/c3ccccc3-c3ccc(C(=O)CCCCN4CCCCC4)cc32)cc1 [IPK 000 198 56],64.7%
4,COc1cc2ccccc2cc1C(=O)Nc1nccs1 [IPK 000 133 02],37.2%
5,CC1=NN(C(N)=S)C(=O)/C1=N/Nc1ccc(O)cc1 [IPK 000 171 84],13.3%
6,CCOC(=O)c1sc(NC(=O)CCC2CCCCC2)nc1C [IPK 000 255 46],53.1%
7,CCCCS(=O)(=O)Nc1ccc(Cc2ccncc2)cc1 [IPK 000 249 12],53.2%
8,O=C(c1ccc([N+](=O)[O-])o1)N1CCN(Cc2ccccc2)CC1 [IPK 000 135 28],26.6%
9,COc1ccc(/C=C2\c3ccccc3-c3ccc(C(=O)CCCCN4CCCCC4)cc32)cc1OC [IPK 000 198 54],77.9%
10,CC1=NN(C(N)=S)C(=O)/C1=N/Nc1ccccc1C [IPK 000 168 32],81.9%
11,CC(=O)COc1c([N+](=O)[O-])ccc(F)c1F [IPK 000 259 78],58.8%
12,OC1CCCc2c1[nH]c1ccc(Br)cc21 (stereo not drawn) [IPK 000 180 76],92.1%
13,O=C(NCCC1=CCCCC1)c1ccc(Br)o1 [IPK 000 184 56],72.7%
14,O=C(Nc1ccc(F)cc1)Nc1ccc(C(F)(F)F)cc1 [IPK 000 147 17],40.8%
15,CCN(CC)c1ccc(/C=N/NC(=O)c2ccncc2)cc1 [IPK 000 195 99],69.5%
16,O=[N+]([O-])c1ccc(/C=N/c2ccccc2O)s1 [IPK 000 169 76],16.7%
17,Nc1nc2ccccc2c(-c2cccc3ccccc23)c1CN1CC1 [IPK 000 222 04],85.8%
18,NNC(=O)c1ccc(COc2ccc(Cl)cc2)o1 [IPK 000 140 87],91.1%
19,O=C(N/N=C/c1ccccc1)c1ccncc1 [IPK 000 219 27],57.4%
20,O=C(/C=C/c1ccccc1F)c1ccc(Cl)cc1 [IPK 000 172 35],59.9%
21,C/C(=N\NC(=S)Nc1cccc(C)c1)c1ccco1 [IPK 000 173 45],19.2%
22,CCOC(=O)c1sc(NC(=O)CCCc2ccccc2)nc1C [IPK 000 254 25],18.5%
23,CC(C)(C)c1ccc(C(=O)NC2CCCCCCC2)cc1 [IPK 000 248 71],79%
24,CCCCNC(=O)c1ccc2c(c1)OCO2 [IPK 000 208 53],23.3%
25,CSc1ccc(/C=N/Nc2nc(-c3ccc(NC(=O)CCC(=O)O)cc3)cs2)cc1 [IPK 000 262 07],7.9%

# Same assay, conditions: Mycobacterium tuberculosis, H37RV, Macrophage; primary screen, 20 μM, intracellular; read-out: Primary QIM % Inhibition
row,SMILES,inhibition at 20 µM
1,CNCCCN1c2ccccc2CCc2ccccc21 [IPK 000 224 59],72.9%
2,CS(=O)(=O)c1nc(-c2ccc(Cl)cc2)n[nH]1 [IPK 000 134 63],-18.3%
3,COc1ccc(-c2csc(-c3cccnc3)n2)cc1 [IPK 000 144 22],-9.8%
4,CS(=O)(=O)c1nc(-c2ccc(Br)cc2)n[nH]1 [IPK 000 134 62],-56.1%
5,O=C(CSC1=NCCS1)Nc1ccc(Br)cc1F [IPK 000 150 41],78.3%
6,Cc1ccsc1/C=C1/SC(N2CCCCC2)=NC1=O [IPK 000 129 72],61.8%
7,CC(C)(C)c1ccc(-c2nc(Oc3ccc(O)cc3)c3ccccc3n2)cc1 [IPK 000 142 18],73.2%
8,NC(=O)c1ccccc1/N=C/c1ccc([N+](=O)[O-])o1 [IPK 000 175 27],-69.7%
9,COc1ccc(/C=N/Nc2nc(-c3ccc(NC(C)=O)cc3)cs2)cc1 [IPK 000 163 52],86.2%
10,Cc1noc(NS(=O)(=O)c2ccc(N)cc2)c1C [IPK 000 254 12],30.3%
11,O=C1OCc2cc(NC(=O)C34CC5CC(CC(C5)C3)C4)ccc21 [IPK 000 249 14],45%
12,O=C(Nc1ccc(Cl)c(Cl)c1)c1ccc(Cn2cc(Cl)cn2)cc1 [IPK 000 180 16],46.1%
13,O=C(NCCc1ccccc1)c1ccc([N+](=O)[O-])o1 [IPK 000 235 09],46.2%
14,C/C(=N/NC(=O)c1cc2ccccc2cc1O)c1ccc(O)cc1 [IPK 000 180 11],68.2%
15,COc1ccc(/C=N/Nc2nc(-c3ccccc3)cs2)cc1 [IPK 000 163 62],81.3%
16,CC(C)CCNC(=O)c1cccc(Cl)c1 [IPK 000 210 79],77.2%
17,CCOc1ccc(C(=O)/C=C/c2ccccc2F)cc1 [IPK 000 172 34],-82.4%
18,CCOc1ccc(NCCCCO)cc1 [IPK 000 172 54],4.1%
19,c1cc2c3c(cccc3c1)NC1(CCCCCC1)N2 [IPK 000 141 61],4.2%
20,CCc1cccc(NC(=O)c2cccs2)c1 [IPK 000 257 61],71.5%
21,O=C(Nc1cccc(C(F)(F)F)c1)c1cccs1 [IPK 000 202 08],65.7%
22,CS(=O)(=O)c1nnnn1-c1ccccc1 [IPK 000 244 12],29.9%
23,O=[N+]([O-])c1ccc(Cl)c(/C=N/c2ccccc2O)c1 [IPK 000 169 68],-5%
24,Cc1ccc(C(=O)NCCSC2CCCCC2)cc1[N+](=O)[O-] [IPK 000 229 50],60.1%
25,O=c1c(/C=N/Cc2ccco2)c(NCc2ccco2)nc2ccccn12 [IPK 000 130 26],66.3%

row,SMILES,inhibition at 20 µM
1,Cc1ccsc1/C=C/c1ccccc1O [IPK 000 179 05],-31.7%
2,CCc1ccc(NC(=O)C23CC4CC(CC(C4)C2)C3)cc1 [IPK 000 228 46],22.5%
3,COc1ccc(/C=C2/c3ccccc3-c3ccc(C(=O)CCCCN4CCCCC4)cc32)cc1 [IPK 000 198 56],15.1%
4,COc1cc2ccccc2cc1C(=O)Nc1nccs1 [IPK 000 133 02],-44.8%
5,CC1=NN(C(N)=S)C(=O)/C1=N/Nc1ccc(O)cc1 [IPK 000 171 84],-79.6%
6,CCOC(=O)c1sc(NC(=O)CCC2CCCCC2)nc1C [IPK 000 255 46],25%
7,CCCCS(=O)(=O)Nc1ccc(Cc2ccncc2)cc1 [IPK 000 249 12],23.6%
8,O=C(c1ccc([N+](=O)[O-])o1)N1CCN(Cc2ccccc2)CC1 [IPK 000 135 28],53.3%
9,COc1ccc(/C=C2\c3ccccc3-c3ccc(C(=O)CCCCN4CCCCC4)cc32)cc1OC [IPK 000 198 54],38.6%
10,CC1=NN(C(N)=S)C(=O)/C1=N/Nc1ccccc1C [IPK 000 168 32],75.7%
11,CC(=O)COc1c([N+](=O)[O-])ccc(F)c1F [IPK 000 259 78],4.9%
12,OC1CCCc2c1[nH]c1ccc(Br)cc21 (stereo not drawn) [IPK 000 180 76],70.6%
13,O=C(NCCC1=CCCCC1)c1ccc(Br)o1 [IPK 000 184 56],85.1%
14,O=C(Nc1ccc(F)cc1)Nc1ccc(C(F)(F)F)cc1 [IPK 000 147 17],11.9%
15,CCN(CC)c1ccc(/C=N/NC(=O)c2ccncc2)cc1 [IPK 000 195 99],79.1%
16,O=[N+]([O-])c1ccc(/C=N/c2ccccc2O)s1 [IPK 000 169 76],-71.9%
17,Nc1nc2ccccc2c(-c2cccc3ccccc23)c1CN1CC1 [IPK 000 222 04],65.4%
18,NNC(=O)c1ccc(COc2ccc(Cl)cc2)o1 [IPK 000 140 87],92.2%
19,O=C(N/N=C/c1ccccc1)c1ccncc1 [IPK 000 219 27],96.9%
20,O=C(/C=C/c1ccccc1F)c1ccc(Cl)cc1 [IPK 000 172 35],0.9%
21,C/C(=N\NC(=S)Nc1cccc(C)c1)c1ccco1 [IPK 000 173 45],14.9%
22,CCOC(=O)c1sc(NC(=O)CCCc2ccccc2)nc1C [IPK 000 254 25],32.5%
23,CC(C)(C)c1ccc(C(=O)NC2CCCCCCC2)cc1 [IPK 000 248 71],79.5%
24,CCCCNC(=O)c1ccc2c(c1)OCO2 [IPK 000 208 53],71.6%
25,CSc1ccc(/C=N/Nc2nc(-c3ccc(NC(=O)CCC(=O)O)cc3)cs2)cc1 [IPK 000 262 07],80.3%

# Test system: Raw264.7 cells
# Assay: Cell number (CellNb) from image analysis of the phenotypic cell-based assay
# Settings: primary screen, 20 μM
row,SMILES,Primary QIM CellNb
1,CNCCCN1c2ccccc2CCc2ccccc21 [IPK 000 224 59],60.3
